# Experimental data from patent US9346820B2, “HIV-1 protease inhibitors having gem-di-fluoro bicyclic P2-ligands” (priority 2013, dated 2016).
# Where two headings read alike, the source gives them in different places.
# Assays:
# Type in all cases: cell-based
# [1] = Cytotoxicity (CC50), MTT assay; details: human
# Description: The susceptibility of HIV-1LAI to various drugs was determined as previously described with minor modifications. Briefly, MT-2 cells (10^4/ml) were exposed to 100 50% tissue culture infectious doses (TCID50) of HIV-1LAI in the presence or absence of various concentrations of drugs in 96-well microculture plates and were incubated at 37° C. for 7 days. After 100 μl of the medium was removed from each well, 3-(4,5-dimetylthiazol-2-yl)-2,5-diphenyltetrazolium bromide (MTT) solution (10 μl, 7.5 mg/ml in phosphate-buffered saline) was added to each well in the plate, followed by incubation at 37° C. for 2 h. […] All assays were performed in duplicate or triplicate. […] In determining the drug susceptibility of certain laboratory HIV-1 strains, MT-4 cells were employed as target cells as previously described with minor modifications. In brief, MT-4 cells (10^5/ml) were exposed to 100 TCID50 of drug-resistant HIV-1 strains in the presence or absence of various concentrations of drugs and were incubated at 37° C. On day 7 of culture, the supernatants were harvested and the amounts of p24 Gag protein were determined by using a fully automated chemiluminescent enzyme immunoassay system (Lumipulse F: Fujirebio Inc., Tokyo). […] All assays were performed in duplicate or triplicate. PHA-PBMs were derived from a single donor in each independent experiment. Thus, for obtaining the data, three different donors were recruited.
# HIV-1MDR/JSL = experiment: microbe, parasite or virus in culture; details: for EC50: Human immunodeficiency virus 1, read-out: EC50 HIV-1MDR/JSL (R5); for fold change of EC50 HIV-1MDR/JSL vs HIV-1ERS104pre: number in parentheses
# Description: (§1) All primary HIV-1 strains were passaged once or twice in 3-day-old phytohemagglutinin activated peripheral blood mononuclear cells (PHA-PBM), and the culture supernatants were stored at −80° C. until use.
# (§2) The susceptibility of HIV-1LAI to various drugs was determined as previously described with minor modifications. Briefly, MT-2 cells (10^4/ml) were exposed to 100 50% tissue culture infectious doses (TCID50) of HIV-1LAI in the presence or absence of various concentrations of drugs in 96-well microculture plates and were incubated at 37° C. for 7 days. After 100 μl of the medium was removed from each well, 3-(4,5-dimetylthiazol-2-yl)-2,5-diphenyltetrazolium bromide (MTT) solution (10 μl, 7.5 mg/ml in phosphate-buffered saline) was added to each well in the plate, followed by incubation at 37° C. for 2 h. […] All assays were performed in duplicate or triplicate. […] To determine the sensitivity of primary HIV-1 isolates to drugs, phytohemagglutinin-stimulated peripheral blood mononuclear cells (PHA-PBMC) (10^6/ml) were exposed to 50 TCID50 of each primary HIV-1 isolate and cultured in the presence or absence of various concentrations of drugs in 10-fold serial dilutions in 96-well microculture plates. In determining the drug susceptibility of certain laboratory HIV-1 strains, MT-4 cells were employed as target cells as previously described with minor modifications. In brief, MT-4 cells (10^5/ml) were exposed to 100 TCID50 of drug-resistant HIV-1 strains in the presence or absence of various concentrations of drugs and were incubated at 37° C. On day 7 of culture, the supernatants were harvested and the amounts of p24 Gag protein were determined by using a fully automated chemiluminescent enzyme immunoassay system (Lumipulse F: Fujirebio Inc., Tokyo). […] All assays were performed in duplicate or triplicate. PHA-PBMs were derived from a single donor in each independent experiment. Thus, for obtaining the data, three different donors were recruited.
# HIV-1MDR/TM = experiment: microbe, parasite or virus in culture; details: for EC50: Human immunodeficiency virus 1, read-out: EC50 HIV-1MDR/TM (X4); for fold change of EC50 HIV-1MDR/TM vs HIV-1ERS104pre: number in parentheses
# Description: as §1, §2
# HIV-1MDR/G = experiment: microbe, parasite or virus in culture; details: for EC50: Human immunodeficiency virus 1, read-out: EC50 HIV-1MDR/G (X4); for fold change of EC50 HIV-1MDR/G vs HIV-1ERS104pre: number in parentheses
# Description: as §1, §2
# HIV-1MDR/MM = experiment: microbe, parasite or virus in culture; details: for EC50: Human immunodeficiency virus 1, read-out: EC50 HIV-1MDR/MM (R5); for fold change of EC50 HIV-1MDR/MM vs HIV-1ERS104pre: number in parentheses
# Description: as §1, §2
# [2] = tested on: multi-drug-resistant clinical HIV-1 variants; experiment: p24 assay in PHA-PBMs, the six multi-drug-resistant clinical variants taken together; details: Human immunodeficiency virus 1, read-out: EC50 values against clinical multi-drug-resistant variants
# Description: The susceptibility of HIV-1LAI to various drugs was determined as previously described with minor modifications. Briefly, MT-2 cells (10^4/ml) were exposed to 100 50% tissue culture infectious doses (TCID50) of HIV-1LAI in the presence or absence of various concentrations of drugs in 96-well microculture plates and were incubated at 37° C. for 7 days. After 100 μl of the medium was removed from each well, 3-(4,5-dimetylthiazol-2-yl)-2,5-diphenyltetrazolium bromide (MTT) solution (10 μl, 7.5 mg/ml in phosphate-buffered saline) was added to each well in the plate, followed by incubation at 37° C. for 2 h. […] All assays were performed in duplicate or triplicate. […] To determine the sensitivity of primary HIV-1 isolates to drugs, phytohemagglutinin-stimulated peripheral blood mononuclear cells (PHA-PBMC) (10^6/ml) were exposed to 50 TCID50 of each primary HIV-1 isolate and cultured in the presence or absence of various concentrations of drugs in 10-fold serial dilutions in 96-well microculture plates. In determining the drug susceptibility of certain laboratory HIV-1 strains, MT-4 cells were employed as target cells as previously described with minor modifications. […] On day 7 of culture, the supernatants were harvested and the amounts of p24 Gag protein were determined by using a fully automated chemiluminescent enzyme immunoassay system (Lumipulse F: Fujirebio Inc., Tokyo). […]
SMILES,CC50 at 7 days [1] [nM],EC50 (HIV-1MDR/JSL) [nM],fold change of EC50 HIV-1MDR/JSL vs HIV-1ERS104pre (HIV-1MDR/JSL) [fold],EC50 (HIV-1MDR/TM) [nM],fold change of EC50 HIV-1MDR/TM vs HIV-1ERS104pre (HIV-1MDR/TM) [fold],EC50 (HIV-1MDR/G) [nM],fold change of EC50 HIV-1MDR/G vs HIV-1ERS104pre (HIV-1MDR/G) [fold],EC50 (HIV-1MDR/MM) [nM],fold change of EC50 HIV-1MDR/MM vs HIV-1ERS104pre (HIV-1MDR/MM) [fold],EC50 [2] [nM],"CC50 at 7 days ([1]; 50% cytotoxicity, read-out: CC50) [nM]"
"COC(=O)N[C@H](C(=O)N[C@@H](Cc1ccccc1)[C@@H](O)CN(Cc1ccc(-c2ccccn2)cc1)NC(=O)[C@@H](NC(=O)OC)C(C)(C)C)C(C)(C)C [ATV, Atazanavir]",28600 ± 900,> 1000,> 476,56,24,42,19,81,38,,
"CC(C)CN(C[C@@H](O)[C@H](Cc1ccccc1)NC(=O)O[C@H]1CO[C@H]2OCC[C@H]21)S(=O)(=O)c1ccc(N)cc1 [DRV, darunavir]",,25,,30,,14,,10,,,
COc1ccc(S(=O)(=O)N(CC(C)C)C[C@@H](O)[C@H](Cc2ccccc2)NC(=O)OC2CO[C@H]3OCC(F)(F)[C@@H]23)cc1 (some centres unmarked) [GRL-04810],17500,21,10,4,2,4,2,2,1,2 to 21,
CC(C)CN(C[C@@H](O)[C@H](Cc1ccccc1)NC(=O)O[C@H]1CO[C@H]2OCC(F)(F)[C@H]21)S(=O)(=O)c1ccc(N)cc1 [GRL-05010],,20,7,4,2,4,1,3,1,2 to 21,
"CC(C)(C)NC(=O)[C@@H]1C[C@@H]2CCCC[C@@H]2CN1C[C@@H](O)[C@H](Cc1ccccc1)NC(=O)[C@H](CC(N)=O)NC(=O)c1ccc2ccccc2n1 [SQV, Saquinavir]",,530,133,100,25,39,10,110,27,,17700 ± 3400
